Measured values published in patent US12595248B2, “PRMT5 inhibitors” (Merck Sharp & Dohme LLC, priority 2019, dated 2026).
Where two headings read alike, the source gives them in different places.

Key:
PRMT5 = molecular target: T1, PRMT5 (Homo sapiens, UniProt O14744); assay: PRMT5 Cell Target Engagement (TE) Assay; assay type: cell-based; settings: MCF-7 cells, treated for 3 days, symmetric dimethylation of arginine (SDMA) by high content imaging
T1 construct: seeded with 4000 MCF-7 cells in 30 μl media; endogenous in cells; host or cells: MCF-7 cells
T1 sequence (O14744 whole entry): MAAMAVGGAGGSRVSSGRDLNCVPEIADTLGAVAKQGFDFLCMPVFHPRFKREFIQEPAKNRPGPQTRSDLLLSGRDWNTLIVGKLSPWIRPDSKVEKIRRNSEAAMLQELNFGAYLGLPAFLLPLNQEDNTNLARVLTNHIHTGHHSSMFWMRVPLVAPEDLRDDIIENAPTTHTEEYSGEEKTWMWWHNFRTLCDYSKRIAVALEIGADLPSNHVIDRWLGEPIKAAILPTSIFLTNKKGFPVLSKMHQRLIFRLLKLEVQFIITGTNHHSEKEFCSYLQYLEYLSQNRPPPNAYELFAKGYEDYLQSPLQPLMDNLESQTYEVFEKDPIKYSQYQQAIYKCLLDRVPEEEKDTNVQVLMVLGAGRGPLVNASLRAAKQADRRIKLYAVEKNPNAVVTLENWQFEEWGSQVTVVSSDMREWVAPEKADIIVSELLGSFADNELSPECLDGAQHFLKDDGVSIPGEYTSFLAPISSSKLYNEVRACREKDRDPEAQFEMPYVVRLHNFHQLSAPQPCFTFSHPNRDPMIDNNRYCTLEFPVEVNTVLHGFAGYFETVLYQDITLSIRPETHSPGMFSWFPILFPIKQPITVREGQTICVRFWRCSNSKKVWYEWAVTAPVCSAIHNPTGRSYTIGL
T1 sequence (Q9BQA1 whole entry partner): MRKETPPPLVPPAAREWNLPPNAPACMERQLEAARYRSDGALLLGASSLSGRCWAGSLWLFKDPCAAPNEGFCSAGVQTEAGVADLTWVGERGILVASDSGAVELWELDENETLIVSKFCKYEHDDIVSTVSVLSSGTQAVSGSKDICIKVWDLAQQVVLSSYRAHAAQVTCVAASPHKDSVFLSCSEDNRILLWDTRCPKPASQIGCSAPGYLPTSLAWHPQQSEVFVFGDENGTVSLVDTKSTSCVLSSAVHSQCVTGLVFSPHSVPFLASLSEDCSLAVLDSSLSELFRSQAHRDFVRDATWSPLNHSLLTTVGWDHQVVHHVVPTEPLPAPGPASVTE
Outline: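 Readout is single-cell nuclear symmetric-dimethylarginine immunofluorescence (Alexa488), normalized to DMSO-treated cells. Compounds were applied to MCF-7 cells for 3 days at 37 °C, top concentration 10000 nM in 1:3 steps over ten points; curves fitted with 4-parameter robust fit.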

[1] = molecular target: T2, PRMT5-MEP50 enzyme complex (Homo sapiens, UniProt O14744); assay: PRMT5-MEP50 Enzyme Methylation Assay (Version A); assay type: biochemical
T2 construct: Full-length (FL)-PRMT5-MEP50 enzyme complex (recombinant proteins from baculovirus-transfected Sf21 cells: FL-PRMT5; MW=73837 kDa and FL-MEP50; MW=38614); made in house; host or cells: baculovirus-transfected Sf21 cells
T2 sequence (O14744 whole entry): as the sequence (O14744 whole entry) above
T2 sequence (Q9BQA1 whole entry partner): as the sequence (Q9BQA1 whole entry partner) above

[2] = first of two EC50s: 7 parameters biphasic model, read-out: Enzyme Methylation Assay Version A (EC50_1)
[3] = second of two EC50s: 7 parameters biphasic model, read-out: Enzyme Methylation Assay Version A (EC50_2)
[4] = only one EC50 shown: 4 parameters single site sigmoidal model, 60 min pre-incubation with SAM, read-out: Enzyme Methylation Assay Version A (EC50)

| Structure (SMILES) | EC50 (PRMT5) [nM] | EC50 [1, 2] [nM] | EC50 [1, 3] [nM] | EC50 [1, 4] [nM] |
| --- | --- | --- | --- | --- |
| CC(=O)N1CCC(Nc2nccc(C(=O)N3CC[C@@H](N4CCc5ccccc5C4)[C@H](O)C3)c2F)CC1 [Example 19, 1-(4-((4-((3R,4R)-4-(3,4-dihydroisoquinolin-2(1H)-yl)-3-hydroxypiperidine-1-carbonyl)-3-fluoropyridin-2-yl)amino)piperidin-1-yl)ethan-1-one] | 9800 |  |  | 507 |
| CC(=O)N1CCC(Nc2cc(C(=O)N3CCC(N4CCc5ccccc5C4)C(O)C3(C)C)ccn2)CC1 (single isomer, unassigned) [Example 23, l-(4-((4-(4-(3,4-dihydroisoquinolin-2(1H)-yl)-3-hydroxy-2,2-dimethylpiperidine-1-carbonyl)pyridin-2-yl)amino)piperidin-1-yl)ethan-1-one] | 4690 | ~36 | 31600 |  |
| CC(C)N1CCNc2cc(C(=O)N3CC[C@H](N4CCc5ccccc5C4)[C@@H](O)C3)ccc2C1=O [Example 62, 8-((3S,4S)-4-(3,4-dihydroisoquinolin-2(1H)-yl)-3-hydroxypiperidine-1-carbonyl)-4-isopropyl-1,2,3,4-tetrahydro-5H-benzo[e][1,4]diazepin-5-one] | 21 |  |  | 3.6 |
| Cc1c(Br)cnc2nc(C(=O)N3CC[C@H](N4CCc5ccccc5C4)[C@@H](O)C3)cn12 [Example 66, (6-bromo-5-methylimidazo[1,2-a]pyrimidin-2-yl)((3S,4S)-4-(3,4-dihydroisoquinolin-2(1H)-yl)-3-hydroxypiperidin-1-yl)methanone] | 1810 | 5.2 | 861 |  |
| CCOc1cnc(NC2CCN(C(C)=O)CC2)cc1C(=O)N1CC[C@H](N2CCc3ccccc3C2)[C@@H](O)C1 [Example 107, 1-(4-((4-((3S,4S)-4-(3,4-dihydroisoquinolin-2(1H)-yl)-3-hydroxypiperidine-1-carbonyl)-5-ethoxypyridin-2-yl)amino)piperidin-1-yl)ethan-1-one] | 7.9 |  |  | 2.1 |
| CCC(=O)N1CCC(Nc2cc(C(=O)N3CC[C@H](N4CCc5ccccc5C4)[C@@H](O)C3)c(F)cn2)CC1 [Example 111, 1-(4-((4-((3S,4S)-4-(3,4-dihydroisoquinolin-2(1H)-yl)-3-hydroxypiperidine-1-carbonyl)-5-fluoropyridin-2-yl)amino)piperidin-1-yl)propan-1-one] | 6.1 |  |  | 1.4 |
| CC1(C)CC(C2Oc3ccc(C(=O)N4CC[C@H](N5CCc6ccccc6C5)[C@@H](O)C4)cc3NC2=O)CO1 (single isomer, unassigned) [Example 84] | 5.6 |  |  | 0.9 |
| CC(C#N)c1cnc2nc(C(=O)N3CC[C@H](N4CCc5ccccc5C4)[C@@H](O)C3)cn2c1 (stereo partly drawn) [Example 77, 2-{2-[(3S,4S)-4-(3,4-dihydroisoquinolin-2(1H)-yl)-3-hydroxypiperidine-1-carbonyl]imidazo[1,2-a]pyrimidin-6-yl}propanenitrile] | 13 |  |  | 2.1 |
| CC(=O)N1C2CCC1CC(Nc1cc(C(=O)N3CC[C@H](N4CCc5ccccc5C4)[C@@H](O)C3)c(F)cn1)C2 (stereo partly drawn) [Example 122, 1-(3-((4-((3S,4S)-4-(3,4-dihydroisoquinolin-2(1H)-yl)-3-hydroxypiperidine-1-carbonyl)-5-fluoropyridin-2-yl)amino)-8-azabicyclo[3.2.1]octan-8-yl)ethan-1-one] | 5.9 |  |  | 3.4 |
| Cc1nc2ncc(C(=O)N3CC[C@H](N4CCc5ccccc5C4)[C@@H](O)C3)n2cc1Br [Example 75, (6-bromo-7-methylimidazo[1,2-a]pyrimidin-3-yl)[(3S,4S)-4-(3,4-dihydroisoquinolin-2(1H)-yl)-3-hydroxypiperidin-1-yl]methanone] | 647 | 41 | 1550 |  |
| Cc1c(Br)cnc2ncc(C(=O)N3CC[C@H](N4CCc5ccccc5C4)[C@@H](O)C3)n12 [Example 76, (6-bromo-5-methylimidazo[1,2-a]pyrimidin-3-yl)[(3S,4S)-4-(3,4-dihydroisoquinolin-2(1H)-yl)-3-hydroxypiperidin-1-yl]methanone] | 2230 | 3.1 | 1680 |  |
| CC(C)c1nc2nc(C(=O)N3CC[C@H](N4CCc5ccccc5C4)[C@@H](O)C3)cn2cc1Br [Example 79, [6-bromo-7-(propan-2-yl)imidazo[1,2-a]pyrimidin-2-yl][(3S,4S)-4-(3,4-dihydroisoquinolin-2(1H)-yl)-3-hydroxypiperidin-1-yl]methanone] | 4.9 |  |  | 0.7 |
| O=C(c1cn2cc(Br)cnc2n1)N1CC[C@H](N2CCc3ccccc3C2)[C@@H](O)C1 [Example 71, (6-bromoimidazo[1,2-a]pyrimidin-2-yl)[(3S,4S)-4-(3,4-dihydroisoquinolin-2(1H)-yl)-3-hydroxypiperidin-1-yl]methanone] | 10 |  |  | 1.1 |
| COC(=O)N1CCC(Nc2cc(C(=O)N3CC[C@H](N4CCc5ccccc5C4)[C@@H](O)C3)c(F)cn2)CC1 [Example 109, methyl 4-((4-((3S,4S)-4-(3,4-dihydroisoquinolin-2(1H)-yl)-3-hydroxypiperidine-1-carbonyl)-5-fluoropyridin-2-yl)amino)piperidine-1-carboxylate] | 3.5 |  |  | 1.2 |
| CC(=O)N1CCC(Nc2cc(C(=O)N3CCC(N4CCc5ccccc5C4)C(O)C3(C)C)ccn2)CC1 (single isomer, unassigned) [Example 22, l-(4-((4-(4-(3,4-dihydroisoquinolin-2(1H)-yl)-3-hydroxy-2,2-dimethylpiperidine-1-carbonyl)pyridin-2-yl)amino)piperidin-1-yl)ethan-1-one] | > 10000 | 159 | 58900 |  |

Further lines, results first:

| EC50 (PRMT5) [nM] | EC50 [1, 2] [nM] | EC50 [1, 3] [nM] | EC50 [1, 4] [nM] | Structure (SMILES) |
| --- | --- | --- | --- | --- |
| 28 | 3.3 | 3130 |  | CC(=O)N1CCC(Nc2cc(C(=O)N3CC[C@H](N4CCc5ccccc5C4)[C@@H](O)C3)c(F)cn2)C1 (single isomer, unassigned) [Example 114] |
| 8.6 |  |  | 1.1 | O=C(c1cn2cc(Br)cc(Br)c2n1)N1CC[C@H](N2CCc3ccccc3C2)[C@@H](O)C1 [Example 142, (6,8-dibromoimidazo[1,2-a]pyridin-2-yl)[(3S,4S)-4-(3,4-dihydroisoquinolin-2(1H)-yl)-3-hydroxypiperidin-1-yl]methanone] |
| 43 | 1.8 | 202 |  | Cc1cc(Br)c2nc(C(=O)N3CC[C@H](N4CCc5ccccc5C4)[C@@H](O)C3)cn2c1 [Example 134, (8-bromo-6-methylimidazo[1,2-a]pyridin-2-yl)[(3S,4S)-4-(3,4-dihydroisoquinolin-2(1H)-yl)-3-hydroxypiperidin-1-yl]methanone] |
| 806 | 2.8 | 1820 |  | O=C(c1cc2ncc(Br)cn2n1)N1CC[C@H](N2CCc3ccccc3C2)[C@@H](O)C1 [Example 143, (6-bromopyrazolo[1,5-a]pyrimidin-2-yl)[(3S,4S)-4-(3,4-dihydroisoquinolin-2(1H)-yl)-3-hydroxypiperidin-1-yl]methanone] |
| 316 | 20 | 5490 |  | CC(=O)N1CC2CC1CC2Nc1cc(C(=O)N2CC[C@H](N3CCc4ccccc4C3)[C@@H](O)C2)c(F)cn1 (single isomer, unassigned) [Example 120] |
| 1750 | ~58 | 13700 |  | N#CC1(c2ccc3nc(C(=O)N4CC[C@H](N5CCc6ccccc6C5)[C@@H](O)C4)cn3c2)CC1 [Example 125, 1-(2-((3S,4S)-4-(3,4-dihydroisoquinolin-2(1H)-yl)-3-hydroxypiperidine-1-carbonyl)imidazo[1,2-a]pyridin-6-yl)cyclopropane-1-carbonitrile] |
| 12 |  |  | 0.4 | CC1(C)CC1(C#N)c1cnc2nc(C(=O)N3CC[C@H](N4CCc5ccccc5C4)[C@@H](O)C3)cn2c1 (single isomer, unassigned) [Example 127] |
| 55 | 2.9 | 10600 |  | O=C(c1cc(NC2CCN3C(=O)CCC3C2)ncc1F)N1CC[C@H](N2CCc3ccccc3C2)[C@@H](O)C1 (single isomer, unassigned) [Example 118] |
| 7.6 |  |  | 1.3 | O=C(c1cn2cc(Br)cc(I)c2n1)N1CC[C@H](N2CCc3ccccc3C2)[C@@H](O)C1 [Example 139, (6-bromo-8-iodoimidazo[1,2-a]pyridin-2-yl)[(3S,4S)-4-(3,4-dihydroisoquinolin-2(1H)-yl)-3-hydroxypiperidin-1-yl]methanone] |
| 21 |  |  | 1.1 | O=C(c1cn2cc(Br)cc(F)c2n1)N1CC[C@H](N2CCc3ccccc3C2)[C@@H](O)C1 [Example 141, (6-bromo-8-fluoroimidazo[1,2-a]pyridin-2-yl)[(3S,4S)-4-(3,4-dihydroisoquinolin-2(1H)-yl)-3-hydroxypiperidin-1-yl]methanone] |
| 3.8 |  |  | 0.7 | CC1CC1c1cnc2nc(C(=O)N3CCC(N4CCc5ccccc5C4)[C@@H](O)C3)cn2c1 (single isomer, unassigned) [Example 130] |
| 28 | 0.8 | 65 |  | O=C(c1cn2cc(Cl)cc(Cl)c2n1)N1CC[C@H](N2CCc3ccccc3C2)[C@@H](O)C1 [Example 140, (6,8-dichloroimidazo[1,2-a]pyridin-2-yl)[(3S,4S)-4-(3,4-dihydroisoquinolin-2(1H)-yl)-3-hydroxypiperidin-1-yl]methanone] |
